According to patent US9724355B2, “Fulvestrant compositions and methods of use” (SHIMODA BIOTECH (PTY) LTD, priority 2010, dated 2017):
In brackets after ≈: the same amount, converted by molar mass. Like-named read-outs stand apart in the source and are kept apart here.

Assay: Fulvestrant aqueous solubility in the presence and absence of cyclodextrins (excess drug, shaken 24 h, filtered, HPLC)
Assay type: physicochemical
Settings: for Quantity of Fulvestrant Diluted Run 1 / Quantity of Fulvestrant Diluted Run 2 / Average Concentration: diluted sample; for solubility at 24 h: 22 °C
Protocol: The HPLC system used for the chromatographic determination of fulvestrant consisted of a Waters 600E quaternary gradient pump, a Waters 717plus WISP auto-sampler and a Waters 2487 Dual A, Absorbance detector. Separation was performed using a Phenomenex Luna C18 column (250×4.6 mm; 5 urn) (Phenomenex, Torrance, Calif.) (supplied by Separations, South Africa) and a mobile phase consisting of 50% MeCN:22.5% ddH2O :27.5% MeOH. The mobile phase was degassed and filtered prior to use. […] Sample run times were 15 minutes. The UV detector wavelength was set to 280 nm.
1 mL of each of the following aqueous solutions was prepared containing 0; 25; 50; 75 and 100 mg/mL ACD in ddHiO. Excess fulvestrant was added to each of these solutions and the samples were shaken for 24 hours on an orbital shaker at 200 rpm and at 22° C. room temperature. Excess fulvestrant was present in all samples at all times. After 24-hours, the samples were filtered through 0.45 μm syringe tip filters, diluted according to requirements and assayed by HPLC.
1 mL of each of the following aqueous solutions was prepared containing 0; 5; 7.5; 10 and 15 mg/mL BCD in ddH2O. Excess fulvestrant was added to each of these solutions and the samples were shaken for 24 hours on an orbital shaker at 200 rpm and at 22° C. room temperature. Excess fulvestrant was present in all samples at all times. After 24-hours, the samples were filtered through 0.45 μm syringe tip filters, diluted according to requirements and assayed by HPLC.
1 mL of each of the following aqueous solutions was prepared containing 0; 50; 100; 150; 200; 250; 300; 350 and 400 mg/mL MBCD in ddH2O. Excess fulvestrant was added to each of these solutions and the samples were shaken for 24 hours on an orbital shaker at 200 rpm and at 22° C. room temperature. Excess fulvestrant was present in all samples at all times. After 24-hours, the samples were filtered through 0.45 μm syringe tip filters, diluted according to requirements and assayed by HPLC.
1 mL of each of the following aqueous solutions was prepared containing 0; 50; 100; 150; 200; 250; 300; 350 and 400 mg/mL HPBCD in ddH2O. Excess fulvestrant was added to each of these solutions and the samples were shaken for 24 hours on an orbital shaker at 200 rpm and at 22° C. room temperature. Excess fulvestrant was present in all samples at all times. After 24-hours, the samples were filtered through 0.45 μm syringe tip filters, diluted according to requirements and assayed by HPLC.
1 mL of each of the following aqueous solutions was prepared containing 0; 50; 100; 150; 200; 250; 300; 350 and 400 mg/mL SBEBCD in ddH2O. Excess fulvestrant was added to each of these solutions and the samples were shaken for 24 hours on an orbital shaker at 200 rpm and at 22° C. room temperature. Excess fulvestrant was present in all samples at all times. After 24-hours, the samples were filtered through 0.45 μm syringe tip filters, diluted according to requirements and assayed by HPLC.
1 mL of each of the following aqueous solutions was prepared containing 0; 50; 100; 150; and 200 mg/mL GCD in ddHO. Excess fulvestrant was added to each of these solutions and the samples were shaken for 24 hours on an orbital shaker at 200 rpm and at 22° C. room temperature. Excess fulvestrant was present in all samples at all times. After 24-hours, the samples were filtered through 0.45 μm syringe tip filters, diluted according to requirements and assayed by HPLC.
1 mL of each of the following aqueous solutions was prepared containing 0; 50; 100; 150; 200; 250; 300; 350 and 400 mg/mL HPGCD in ddH2O. Excess fulvestrant was added to each of these solutions and the samples were shaken for 24 hours on an orbital shaker at 200 rpm and at 22° C. room temperature. Excess fulvestrant was present in all samples at all times. After 24-hours, the samples were filtered through 0.45 μm syringe tip filters, diluted according to requirements and assayed by HPLC.

Structure (SMILES): C[C@]12CC[C@@H]3c4ccc(O)cc4C[C@@H](CCCCCCCCC[S+]([O-])CCCC(F)(F)C(F)(F)F)[C@H]3[C@@H]1CC[C@@H]2O (stereo partly drawn) [Fulvestrant, 7-alpha-[9-(4,4,5,5,5-pentafluoropentylsulphinyl)nonyl]estra-1,3,5-(10)-triene-3,17-beta-diol]
- Quantity of Fulvestrant Diluted Run 1 (300 mg/mL HPBCD): 164.70 µg/mL
- Quantity of Fulvestrant Diluted Run 2 (300 mg/mL HPBCD): 166.54 µg/mL
- True Fulvestrant Concentration (300 mg/mL HPGCD in ddH2O, 22° C., 24 h): 0.603 mg/mL
- Average Concentration (300 mg/mL HPGCD): 392.50 µg/mL
- Quantity of Fulvestrant Diluted Run 1 (300 mg/mL HPGCD): 400.24 µg/mL
- Quantity of Fulvestrant Diluted Run 2 (300 mg/mL HPGCD): 384.76 µg/mL
- True Fulvestrant Concentration (300 mg/mL MBCD in ddH2O, 22° C., 24 h): 22.673 mg/mL
- Average Concentration (300 mg/mL MBCD): 226.73 µg/mL
- Quantity of Fulvestrant Diluted Run 1 (300 mg/mL MBCD): 226.52 µg/mL
- Quantity of Fulvestrant Diluted Run 2 (300 mg/mL MBCD): 226.94 µg/mL
- True Fulvestrant Concentration (300 mg/mL SBEBCD in ddH2O, 22° C., 24 h): 0.852 mg/mL
- Average Concentration (300 mg/mL SBEBCD): 425.89 µg/mL
- Quantity of Fulvestrant Diluted Run 1 (300 mg/mL SBEBCD): 425.82 µg/mL
- Quantity of Fulvestrant Diluted Run 2 (300 mg/mL SBEBCD): 425.96 µg/mL
- True Fulvestrant Concentration (350 mg/mL HPBCD in ddH2O, 22° C., 24 h): 4.305 mg/mL
- Average Concentration (350 mg/mL HPBCD): 215.26 µg/mL
- Quantity of Fulvestrant Diluted Run 1 (350 mg/mL HPBCD): 215.41 µg/mL
- Quantity of Fulvestrant Diluted Run 2 (350 mg/mL HPBCD): 215.10 µg/mL
- True Fulvestrant Concentration (350 mg/mL HPGCD in ddH2O, 22° C., 24 h): 0.802 mg/mL
- Average Concentration (350 mg/mL HPGCD): 502.97 µg/mL
- Quantity of Fulvestrant Diluted Run 1 (350 mg/mL HPGCD): 500.71 µg/mL
- Quantity of Fulvestrant Diluted Run 2 (350 mg/mL HPGCD): 505.22 µg/mL
- True Fulvestrant Concentration (350 mg/mL MBCD in ddH2O, 22° C., 24 h): 29.275 mg/mL
- Average Concentration (350 mg/mL MBCD): 292.75 µg/mL
- Quantity of Fulvestrant Diluted Run 1 (350 mg/mL MBCD): 293.21 µg/mL
- Quantity of Fulvestrant Diluted Run 2 (350 mg/mL MBCD): 292.29 µg/mL
- True Fulvestrant Concentration (350 mg/mL SBEBCD in ddH2O, 22° C., 24 h): 1.140 mg/mL
- Average Concentration (350 mg/mL SBEBCD): 379.96 µg/mL
- Quantity of Fulvestrant Diluted Run 1 (350 mg/mL SBEBCD): 382.24 µg/mL
- Quantity of Fulvestrant Diluted Run 2 (350 mg/mL SBEBCD): 377.67 µg/mL
- True Fulvestrant Concentration (400 mg/mL HPBCD in ddH2O, 22° C., 24 h): 5.473 mg/mL
- Average Concentration (400 mg/mL HPBCD): 273.67 µg/mL
- Quantity of Fulvestrant Diluted Run 1 (400 mg/mL HPBCD): 275.20 µg/mL
- Quantity of Fulvestrant Diluted Run 2 (400 mg/mL HPBCD): 272.14 µg/mL
- True Fulvestrant Concentration (400 mg/mL HPGCD in ddH2O, 22° C., 24 h): 1.061 mg/mL
- Average Concentration (400 mg/mL HPGCD): 468.43 µg/mL
- Quantity of Fulvestrant Diluted Run 1 (400 mg/mL HPGCD): 486.39 µg/mL
- Quantity of Fulvestrant Diluted Run 2 (400 mg/mL HPGCD): 450.47 µg/mL
- True Fulvestrant Concentration (400 mg/mL MBCD in ddH2O, 22° C., 24 h): 35.892 mg/mL
- Average Concentration (400 mg/mL MBCD): 358.92 µg/mL
- Quantity of Fulvestrant Diluted Run 1 (400 mg/mL MBCD): 359.13 µg/mL
- Quantity of Fulvestrant Diluted Run 2 (400 mg/mL MBCD): 358.71 µg/mL
- True Fulvestrant Concentration (400 mg/mL SBEBCD in ddH2O, 22° C., 24 h): 1.507 mg/mL
- Average Concentration (400 mg/mL SBEBCD): 502.17 µg/mL
- Quantity of Fulvestrant Diluted Run 1 (400 mg/mL SBEBCD): 503.13 µg/mL
- Quantity of Fulvestrant Diluted Run 2 (400 mg/mL SBEBCD): 501.21 µg/mL
- solubility at 24 h (aqueous cyclodextrin solution, aqueous with cosolvent or surfactant or cyclodextrin, thermodynamic from solid, enhancement with ACD, SBEBCD and HPGCD, read-out: fulvestrant aqueous solubilities): 1000 to 2000 µg/mL
- solubility at 24 h (aqueous cyclodextrin solution, aqueous with cosolvent or surfactant or cyclodextrin, thermodynamic from solid, in 400 mg/mL HPBCD, read-out: aqueous solubility of fulvestrant): 5500 µg/mL (≈ 9.06 mM)
- solubility at 24 h (aqueous cyclodextrin solution, aqueous with cosolvent or surfactant or cyclodextrin, thermodynamic from solid, in 400 mg/mL MBCD, read-out: fulvestrant aqueous solubility): 35900 µg/mL (≈ 59.2 mM)
- solubility thermodynamic at 24 h (water (ddH2O) without cyclodextrin, water, thermodynamic from solid, 0 mg/mL SBEBCD in ddH2O, 22° C., 24 h, read-out: True Fulvestrant Concentration): < 10 µg/mL
- solubility at 24 h (water (ddH2O), water, thermodynamic from solid, absence of cyclodextrin, read-out: aqueous solubility of fulvestrant): < 10 µg/mL
